Reference: US20130177904A1, “ARNT ISOFORM 3 AS A PREDICTOR OF AMINOFLAVONE RESPONSIVENESS IN CANCER CELLS” (UNIVERSITY OF MARYLAND, BALTIMORE, priority 2010, published 2013)

Key:
K562 = K562 leukemia cell line, NIH dose response data; cited from earlier work
MCF7 [1] = assay: Cell Death Detection ELISA PLUS apoptosis assay; type: cell-based, Human
Procedure: (§1) To determine the induction of apoptosis, the Cell Death Detection ELISA^PLUS Assay (Roche Cat. No. 11774425001), which determines the degree of cytoplasmic mono- and oligonucleosomes, was employed as described by the manufacturer. […] Cells were then concentrated by centrifugation at 200 g for 10 min at room temperature and the supernatant was discarded. Cells were lysed, and cytoplasmic fractions containing fragmented DNA were transferred to streptavidin-coated microtiter plates preincubated with a biotinylated monoclonal anti-histone antibody. The amount of fragmented nucleosomes bound to anti-histone antibody was evaluated by peroxidase-conjugated monoclonal antibody using ABTS (2,2-azino-di[3-ethylbenzthiazoline sulfonate-6-diammonium salt]) as a substrate, and read in a microplate reader at 405 nm. Non-treated cells were employed as controls.

T47D [2] = assay: Cell Death Detection ELISA PLUS apoptosis assay; type: cell-based, Human
Procedure: as §1

MDA-MBA-468 = assay: Cell Death Detection ELISA PLUS apoptosis assay; type: cell-based, Human; details: MDA-MBA-468, 48 hours post-AF treatment, 100 nM AF per legend FIG. 2A
Procedure: as §1

MDA-MB-231 = assay: MTS cell proliferation assay; type: cell-based; details: Homo sapiens, 120 h; MDA-MB-231 (ER−), 5 days after treatment, estimated from graph FIG. 1; read-out: IC50 (50% Inhibitory Concentration)
Procedure: (§2) The CellTiter 96 Aqueous MTS Reagent (Promega, Cat. G5421 WI) was employed to measure the effects of AF on cell proliferation. Briefly, cells in 100 μl were seeded in 96-well plates (Nunc) at a density of 2,000 cells/well and allowed to attach overnight. AF was added the following day in final concentrations of 0.1 nM to 100 μM in replicas of 8. Proliferation was measured 5 days later by adding 20 μl MTS reagent to the plates and incubation at 37° C. for 2 hours. Viable cells converted the MTS reagent to a formazan product, which was measured 4 hours later at 490 nm using a Synergy HT Multi-Detection Microplate Reader, and KC4 software (Bio-Tek). Cell proliferation was compared to DMSO treated controls as a percentage, against the background growth at the time of AF treatment.
(§3) For IC50 (50% Inhibiting Concentration) determination, vehicle treated cells were deemed as 100% cell growth. Percent growth inhibition was calculated by dividing AF treated MTS values by MTS values of vehicle treated cells, subtracting background (media alone without cells) from both prior to calculations. […] The data as calculated is more representative of percent cell survival and therefore defined as Inhibitory Concentrations (IC50) rather than GI50 values. That said, they provide for a highly accurate means for comparing effects of AF. IC50 values were estimated directly from the graph (FIG. 1), though model fitting employing BiodataFit 1.02 (Chang Biosciences, found on the world wide web at changbioscience.com/stat/ec50ht.html) provided for highly similar results with model fitting correlations of 0.85 or above and generally small SEE values (standard error of the IC50 estimate).

MCF7 [3] = assay: MTS cell proliferation assay; type: cell-based; details: Homo sapiens, 120 h; MCF7 (ER+), 5 days after treatment, estimated from graph FIG. 1; read-out: IC50 (50% Inhibitory Concentration)
Procedure: as §2, §3

Hs578t = assay: MTS cell proliferation assay; type: cell-based; details: Homo sapiens, Hs-578T, 120 h; Hs578t (ER−), 5 days after treatment, estimated from graph FIG. 1; read-out: IC50 (50% Inhibitory Concentration)
Procedure: as §2, §3

T47D [4] = assay: MTS cell proliferation assay; type: cell-based; details: Homo sapiens, 120 h; T47D (ER+), 5 days after treatment, estimated from graph FIG. 1; read-out: IC50 (50% Inhibitory Concentration)
Procedure: as §2, §3

MDA-MB-468 = assay: MTS cell proliferation assay; type: cell-based; details: Homo sapiens, 120 h; MDA-MB-468 (ER−), 5 days after treatment, estimated from graph FIG. 1; read-out: IC50 (50% Inhibitory Concentration)
Procedure: as §2, §3

SW620 = SW620 colon cell line, NIH dose response data; cited from earlier work
U251 = U251 CNS cancer cell line, NIH dose response data; cited from earlier work

Cc1c(F)c(N)c2c(=O)cc(-c3ccc(N)c(F)c3)oc2c1F [AF, 5-amino-2-(4-amino-3-fluorophenyl)-6,8-difluoro-7-methylchromen-4-one]
AF sensitivity (K562): AF sensitive
increase (cytoplasmic nucleosomes; printed as increase in inhibition of cell proliferation) (MCF7 [1]; 1 μM AF, MCF7, FIG. 2A): > 4.5 fold
induction of apoptosis (MCF7 [1]; MCF7, 48 hours post-AF treatment, 100 nM AF per legend FIG. 2A): prominent induction of apoptosis
increase (cytoplasmic nucleosomes; printed as increase in inhibition of cell proliferation) (T47D [2]; 1 μM AF, FIG. 2A): > 4.5 fold
induction of apoptosis (T47D [2]; 48 hours post-AF treatment, 100 nM AF per legend FIG. 2A): prominent induction of apoptosis
induction of apoptosis (MDA-MBA-468): prominent induction of apoptosis
IC50 (MDA-MB-231): 70000 nM
IC50 (MCF7 [3]): 70 nM
IC50 (Hs578t): 20000 nM
IC50 (T47D [4]): 110 nM
IC50 (MDA-MB-468): 4 nM
AF sensitivity (SW620): AF sensitive
AF sensitivity (U251): some degree of sensitivity
